Data published in ChEMBL document CHEMBL1154238, “Identification of specific small molecule ligands for stem loop 3 ribonucleic acid of the packaging signal Psi of human immunodeficiency virus-1” (J Med Chem, 2009).
Values belong to the molecule of their own block, whether it stands above or below them. Active and inactive are the calls of the source. The rule behind the calls is not given here.

What was measured:
Nucleic Acid [1] = assay: Binding affinity to unlabeled 20mer stem loop 3 HIV1 RNA of packaging element psi by titration method; type: nucleic-acid assay, Human immunodeficiency virus 1
Nucleic Acid [2] = assay: Binding affinity to fluorescein-labeled HIV1 duplex RNA of packaging element psi by titration method; type: nucleic-acid assay, Human immunodeficiency virus 1
Nucleic Acid [3] = assay: Selectivity ratio of Kd for HIV1 single-stranded RNA to Kd for 20mer stem loop 3 HIV1 RNA; type: nucleic-acid assay; settings: Human immunodeficiency virus 1
Nucleic Acid [4] = assay: Binding affinity to fluorescein-labeled 20mer stem loop 3 HIV1 RNA of packaging element psi by titration method; type: nucleic-acid assay, Human immunodeficiency virus 1
Nucleic Acid [5] = assay: Binding affinity to fluorescein-labeled HIV1 single-stranded RNA of packaging element psi by titration method; type: nucleic-acid assay, Human immunodeficiency virus 1
[6] = Solubility in water; type: physicochemical; settings: buffer
[7] = Solubility in DMSO; type: physicochemical
Nucleic Acid [8] = assay: Binding affinity to 2-aminopurine-labeled stem loop 4 HIV1 RNA of packaging element psi by titration method; type: nucleic-acid assay, Human immunodeficiency virus 1
Nucleic Acid [9] = assay: Binding affinity to stem loop 3 HIV1 RNA of packaging element psi assessed as RNA intercalation at 55 to 220 uM by CD spectroscopy; type: nucleic-acid assay; settings: Human immunodeficiency virus 1
Nucleic Acid [10] = assay: Stabilization of stem loop 3 HIV1 RNA of packaging element psi assessed as melting temperature by UV spectroscopy; type: nucleic-acid assay; settings: Human immunodeficiency virus 1
Nucleic Acid [11] = assay: Binding affinity to strong binding site of unlabeled stem loop 2 HIV1 RNA of packaging element psi by isothermal titration calorimetry; type: nucleic-acid assay, Human immunodeficiency virus 1
Nucleic Acid [12] = assay: Stabilization of stem loop 3 HIV1 RNA of packaging element psi assessed as protection against RNase 1-mediated cleavage at 500 uM by footprinting method; type: nucleic-acid assay; settings: Human immunodeficiency virus 1
Nucleic Acid [13] = assay: Selectivity ratio of Kd for fluorescein-labeled HIV1 duplex RNA of packaging element psi to Kd for fluorescein-labeled 14mer stem loop 3 HIV1 RNA of packaging element psi; type: nucleic-acid assay; settings: Human immunodeficiency virus 1
Nucleic Acid [14] = assay: Binding affinity to weaker binding site of unlabeled stem loop 2 HIV1 RNA of packaging element psi by isothermal titration calorimetry; type: nucleic-acid assay, Human immunodeficiency virus 1
Nucleic Acid [15] = assay: Binding affinity to fluorescein-labeled stem loop 2 HIV1 RNA of packaging element psi by titration method; type: nucleic-acid assay, Human immunodeficiency virus 1
Nucleic Acid [16] = assay: Binding affinity to fluorescein-labeled 14mer stem loop 3 HIV1 RNA of packaging element psi by titration method; type: nucleic-acid assay, Human immunodeficiency virus 1
Nucleic Acid [17] = assay: Binding affinity to fluorescein-labeled stem loop 3 HIV1 RNA of packaging element psi after 72 hrs by mass spectroscopy; type: nucleic-acid assay; settings: Human immunodeficiency virus 1
Nucleic Acid [18] = assay: Selectivity ratio of Kd for fluorescein-labeled HIV1 single-stranded RNA of packaging element psi to Kd for fluorescein-labeled 14mer stem loop 3 HIV1 RNA of packaging element psi; type: nucleic-acid assay; settings: Human immunodeficiency virus 1
Nucleic Acid [19] = assay: Binding affinity to stem loop 3 HIV1 RNA of packaging element psi assessed as RNA intercalation at 55 to 110 uM by CD spectroscopy; type: nucleic-acid assay; settings: Human immunodeficiency virus 1
Nucleic Acid [20] = assay: Selectivity ratio of Kd for fluorescein-labeled stem loop 2 HIV1 RNA of packaging element psi to Kd for fluorescein-labeled 14mer stem loop 3 HIV1 RNA of packaging element psi; type: nucleic-acid assay; settings: Human immunodeficiency virus 1
Nucleic Acid [21] = assay: Binding affinity to fluorescein-labeled stem loop 4 HIV1 RNA of packaging element psi by titration method; type: nucleic-acid assay, Human immunodeficiency virus 1
Nucleic Acid [22] = assay: Binding affinity to fluorescein-labeled stem loop 3 HIV1 duplex RNA of packaging element psi by titration method; type: nucleic-acid assay, Human immunodeficiency virus 1
Nucleic Acid [23] = assay: Selectivity ratio of Kd for fluorescein-labeled stem loop 4 HIV1 RNA of packaging element psi to Kd for fluorescein-labeled 14mer stem loop 3 HIV1 RNA of packaging element psi; type: nucleic-acid assay; settings: Human immunodeficiency virus 1
Nucleic Acid [24] = assay: Binding affinity to fluorescein-labeled stem loop 3 HIV1 RNA of packaging element psi by titration method; type: nucleic-acid assay; settings: Human immunodeficiency virus 1
Nucleic Acid [25] = assay: Selectivity ratio of Kd for fluorescein-labeled HIV1 duplex RNA of packaging element psi to Kd for fluorescein-labeled 20mer stem loop 3 HIV1 RNA of packaging element psi; type: nucleic-acid assay; settings: Human immunodeficiency virus 1
Nucleic Acid [26] = assay: Selectivity ratio of Kd for fluorescein-labeled HIV1 single-stranded RNA of packaging element psi to Kd for fluorescein-labeled 20mer stem loop 3 HIV1 RNA of packaging element psi; type: nucleic-acid assay; settings: Human immunodeficiency virus 1

SMILES: Cc1ccn2c(CCc3nnc4cc(C)ccn34)nnc2c1
solubility [6]: Insoluble
solubility [7]: Insoluble

SMILES: COC1=C(C)C(=O)c2c(c(COC(N)=O)c3n2CC2C3N2C)C1=O (stereo unspecified)
Kd (Nucleic Acid [2]): 345 µM
Kd (Nucleic Acid [8]): 79 µM
Activity (Nucleic Acid [9]): Active
Tm (Nucleic Acid [10]): 79.2 °C
Kd (Nucleic Acid [11]): 110 µM
Activity (Nucleic Acid [12]): Active
Selectivity ratio (Nucleic Acid [13]): 3.5
Kd (Nucleic Acid [14]): 11000 µM
Kd (Nucleic Acid [15]): Not Active
Kd (Nucleic Acid [16]): 98 µM
Activity (Nucleic Acid [17]): Active
Kd (Nucleic Acid [5]): > 4900 µM
Selectivity ratio (Nucleic Acid [18]): 50

SMILES: CCOC(=O)c1c2c(n3ccccc13)C(=O)c1ccccc1C2=O
Kd (Nucleic Acid [2]): 3 µM
Kd (Nucleic Acid [4]): 1.4 µM
Kd (Nucleic Acid [22]): Not Active
Selectivity ratio (Nucleic Acid [25]): 2
Kd (Nucleic Acid [5]): 2.3 µM
Selectivity ratio (Nucleic Acid [26]): 2

SMILES: C[N+]1(C)C2CC(OC(=O)C(CO)c3ccccc3)CC1C1OC12 (stereo unspecified)
Kd (Nucleic Acid [16]): 157 µM

SMILES: C[N+](C)(C)CCN[N+]1(C)CCCc2ccccc21 (stereo unspecified)
Kd (Nucleic Acid [2]): 6.1 µM
Kd (Nucleic Acid [4]): 1.5 µM
Kd (Nucleic Acid [22]; read-out: Kd): 14 µM
Selectivity ratio (Nucleic Acid [25]): 4
Kd (Nucleic Acid [5]): 7.8 µM
Selectivity ratio (Nucleic Acid [26]): 4

The remaining lines, values ahead:

Kd (Nucleic Acid [1]): 32 µM
SMILES: CN(C)c1ncnc2c1ncn2CCn1cnc2ncnc(N(C)C)c21

Kd (Nucleic Acid [2]): 0.87 µM
Selectivity ratio (Nucleic Acid [3]): 4.4
Kd (Nucleic Acid [4]): 0.67 µM
Kd (Nucleic Acid [5]): 3 µM
SMILES: COc1ccc2nc3cc(Cl)ccc3c(Nc3ccc(O)c(CN4CCN(C)CC4)c3)c2c1

Kd (Nucleic Acid [4]): 163 µM
SMILES: O=C1Oc2ccccc2C(=O)/C1=C/N1C(=O)N/C(=C\c2ccccc2O)C1=O

Kd (Nucleic Acid [2]): 69 µM
Tm (Nucleic Acid [10]): 78.2 °C
Kd (Nucleic Acid [11]): 15 µM
Activity (Nucleic Acid [12]): Active
Selectivity ratio (Nucleic Acid [13]): 5
Activity (Nucleic Acid [19]): inactive
Selectivity ratio (Nucleic Acid [20]): 4
Kd (Nucleic Acid [21]): 70 µM
Kd (Nucleic Acid [14]): 2250 µM
Kd (Nucleic Acid [22]; read-out: Kd): 58 µM
Kd (Nucleic Acid [15]; read-out: Kd): 46 µM
Kd (Nucleic Acid [16]): 11 µM
Kd (Nucleic Acid [5]): 276 µM
Selectivity ratio (Nucleic Acid [23]): 7
Selectivity ratio (Nucleic Acid [18]): 25
SMILES: Cc1cc(N2CCN(C)CC2)n2nc(-c3ccc(Cl)cc3)nc2n1

Activity (Nucleic Acid [24]): inactive
SMILES: Cn1c(N)nc2c(nc(OCc3ccccc3)n2[C@@H]2O[C@H](CO)[C@@H](O)[C@@H]2O)c1=O

Kd (Nucleic Acid [4]): 135 µM
SMILES: C[N+]1(C)CCc2cc(O)c(O)cc2C1Cc1ccc(O)c(O)c1 (stereo unspecified)
